For test [1], the target named is T1, G1 APOL1 (Homo sapiens, UniProt O14791, I384M/S342G).
T1 construct: expressed in transfected cells
T1 sequence (O14791 28-398 S342G/I384M): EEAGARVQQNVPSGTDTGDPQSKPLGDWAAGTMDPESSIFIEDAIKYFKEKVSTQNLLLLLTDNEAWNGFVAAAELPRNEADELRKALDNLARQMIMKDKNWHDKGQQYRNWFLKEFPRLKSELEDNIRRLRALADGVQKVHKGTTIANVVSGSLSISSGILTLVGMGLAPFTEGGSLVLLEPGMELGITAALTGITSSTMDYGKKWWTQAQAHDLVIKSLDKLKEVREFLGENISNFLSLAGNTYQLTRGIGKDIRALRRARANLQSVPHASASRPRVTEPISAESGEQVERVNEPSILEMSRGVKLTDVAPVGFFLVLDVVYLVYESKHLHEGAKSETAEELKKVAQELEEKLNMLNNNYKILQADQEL
In words: Acute APOL1 Thallium Assay with Inducible Stable Clones of HEK 293 Cells. Type of test: cell-based. The following applies: HEK 293 inducible stable clones, G1 APOL1; read-out: Thallium Assay (IC50). The essentials:
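HEK293 T-Rex cells with a stable tetracycline-inducible G1 APOL1 construct (clone DC3.25) were induced with tetracycline at plating, 26000 cells per well, then incubated at 37° C. They were loaded with an AM-ester thallium-sensitive dye and stimulated with Tl+. The fluorescence rise measured Tl+ influx through APOL1 pores.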

In test [2] the target is T2, APOL1 G1 Protein (Homo sapiens, UniProt O14791, I384M/S342G).
T2 sequence (O14791 28-398 S342G/I384M): T1 sequence (O14791 28-398 S342G/I384M)
The test can be described thus: Trypanosoma brucei brucei Lysis Assay Using APOL1 Recombinant Protein (AlamarBlue viability). The following applies: read-out: Trypanosomal Assay (IC50). Type of test: cell-based. Put shortly: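 Lister 427 bloodstream-form trypanosomes seeded at 120,000 per well in phenol-red-free, serum-free medium and lysed with recombinant APOL1 variant protein. Viability read by AlamarBlue (resazurin) fluorescence. Percent viability relative to untreated wells, interpolated from a standard curve of seeded parasites.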
On the technique in general: Resazurin is reduced to fluorescent resorufin, in cell work by metabolically active cells.

Structures are written as SMILES.

Here are results for 34 compounds from patent US20230014907A1, “INHIBITORS OF APOL1 AND METHODS OF USING SAME” (Vertex Pharmaceuticals Incorporated, priority 2020, published 2023).

As to `O=C(CCc1c(-c2ccc(F)cc2)[nH]c2c(F)cc(F)cc12)N[C@@H](CO)C(F)(F)F` [Compound 121], the IC50 in test [1] and in test [2] was below 250 nM each time.

For `O=C(CCc1c(-c2ccc(F)cc2)[nH]c2ccc(F)cc12)NCC(F)(F)F` [Compound 39], the values for the IC50 in test [1] and in test [2] were 250 to 1000 nM and above 1000 nM, respectively.

On to `O=C(CCc1c(-c2ccc(F)cc2)[nH]c2c(F)cc(F)cc12)Nc1nnc(C(F)(F)F)o1` [Compound 148], for which the half-maximal inhibitory concentration (IC50) in test [1] and in test [2] was above 1000 nM each time.

Take `O=C(CCc1c(-c2ccc(F)cc2)[nH]c2c(F)cc(F)cc12)Nc1ccno1` [Compound 184]: the IC50 in test [1] and in test [2] was above 1000 nM each time.

On to `O=C(CCc1c(-c2ccc(F)cc2)[nH]c2c(F)cc(F)cc12)NC(CO)CF` (centres unmarked) [Compound 99], for which the IC50 in test [1] and in test [2] was below 250 nM each time.

As for `Nc1ccnn1C(=O)CCc1c(-c2ccc(F)cc2)[nH]c2ccc(F)cc12` [Compound 6], the IC50 in test [1] and in test [2] was 250 to 1000 nM each time.

As for `COCCNC(=O)CCc1c(-c2ccc(F)cc2)[nH]c2c(F)cc(F)cc12` [Compound 164], the IC50 in test [1] and in test [2] was above 1000 nM in each case.

In the case of `O=C(CCc1c(-c2ccc(F)cc2)[nH]c2c(F)cc(F)cc12)NCc1cocn1` [Compound 155], the IC50 in test [1] and in test [2] was above 1000 nM each time.

`O=C(CCc1c(-c2ccc(F)cc2)[nH]c2c(F)cc(F)cc12)NC(CCO)C(=O)O` (centres unmarked) [Compound 188]: the 50% inhibitory concentration (IC50) in test [1] was below 250 nM; in test [2] it was 250 to 1000 nM.

With `O=C(CCc1c(-c2ccc(F)cc2)[nH]c2ccc(F)cc12)N[C@@H]1CCC[C@H]1O` [Compound 48], the concentration for half-maximal inhibition (IC50) in test [1] and in test [2] was above 1000 nM in each case.

For `O=C(CCc1c(-c2ccc(F)cc2)[nH]c2ccc(F)cc12)NC1CC1c1ccc(F)cc1` (centres unmarked) [Compound 44], the IC50 in test [1] and in test [2] was above 1000 nM in each case.

With `CC1(O)CN(C(=O)CCc2c(-c3ccc(F)cc3)[nH]c3ccc(F)cc23)C1` [Compound 86], the half-inhibitory concentration (IC50) in test [1] and in test [2] was above 1000 nM throughout.

Turning to `CNC(=O)C(C)NC(=O)CCc1c(-c2ccc(F)cc2)[nH]c2c(F)cc(F)cc12` (racemic) [Compound 100], the IC50 in test [1] and in test [2] was 250 to 1000 nM in each case.

With `O=C(CCc1c(-c2ccc(F)cc2)[nH]c2c(F)cc(F)cc12)NC1(CO)CCC1` [Compound 91, 3-[5,7-difluoro-2-(4-fluorophenyl)-1H-indol-3-yl]-N-[1-(hydroxymethyl)-cyclobutyl]propanamide], the IC50 in test [1] and in test [2] was below 250 nM throughout.

Regarding `C#CC(CO)CNC(=O)CCc1c(-c2ccc(F)cc2)[nH]c2c(F)cc(F)cc12` (centres unmarked) [Compound 118], the IC50 in test [1] and in test [2] was 250 to 1000 nM each time.

With `Cn1ccnc1NC(=O)CCc1c(-c2ccc(F)cc2)[nH]c2c(F)cc(F)cc12` [Compound 108], the IC50 in test [1] and in test [2] was above 1000 nM throughout.

For `O=C(CCc1c(-c2ccc(F)cc2)[nH]c2ccc(F)cc12)N1CCC(F)C1` (centres unmarked) [Compound 55], the IC50 in test [1] and in test [2] was above 1000 nM throughout.

As to `O=C(CCc1c(-c2ccc(F)cc2)[nH]c2ccc(F)cc12)Nc1cc[nH]n1` [Compound 70], the IC50 in test [1] was 250 to 1000 nM; in test [2] it was above 1000 nM.

With `O=C(CCc1c(-c2ccc(F)cc2)[nH]c2ccc(F)cc12)NC(CO)CF` (centres unmarked) [Compound 90], the values for the IC50 in test [1] and in test [2] were 250 to 1000 nM and below 250 nM, respectively.

Turning to `O=C(CCc1c(-c2ccc(F)cc2)[nH]c2ccc(F)cc12)N1CCCC(O)C1` (centres unmarked) [Compound 81], the half-inhibitory concentration (IC50) in test [1] and in test [2] was above 1000 nM throughout.

`O=C(CCc1c(-c2ccc(F)cc2)[nH]c2ccc(F)cc12)N1CCCC1CO` (centres unmarked) [Compound 71]: the IC50 in test [1] and in test [2] was above 1000 nM in each case.

`O=C(CCc1c(-c2ccc(F)cc2)[nH]c2ccc(F)cc12)N[C@H]1CC[C@@H]1O` [Compound 29]: the IC50 in test [1] and in test [2] was 250 to 1000 nM in each case.

As to `Cn1nnnc1NC(=O)CCc1c(-c2ccc(F)cc2)[nH]c2c(F)cc(F)cc12` [Compound 165], the IC50 in test [1] and in test [2] was above 1000 nM in each case.

On to `CNC(=O)C(C)NC(=O)CCc1c(-c2ccc(F)cc2)[nH]c2ccc(F)cc12` (racemic) [Compound 11], for which the IC50 in test [1] and in test [2] was 250 to 1000 nM throughout.

On to `O=C(CCc1c(-c2ccc(F)cc2)[nH]c2ccc(F)cc12)NCC1COC1` [Compound 43], for which the IC50 in test [1] and in test [2] was above 1000 nM in each case.

On to `NC1CCC(NC(=O)CCc2c(-c3ccc(F)cc3)[nH]c3ccc(F)cc23)C1` (centres unmarked) [Compound 7], for which the IC50 in test [1] and in test [2] was above 1000 nM each time.

`O=C(CCc1c(-c2ccc(F)cc2)[nH]c2ccc(F)cc12)N[C@H]1C[C@@H](O)C1` [Compound 87]: the IC50 in test [1] and in test [2] was above 1000 nM each time.

As to `O=C(CCc1c(-c2ccc(F)cc2)[nH]c2c(F)cc(F)cc12)NCC1(CO)COC1` [Compound 140], the 50% inhibitory concentration (IC50) in test [1] and in test [2] was above 1000 nM each time.

With `O=C(CCc1c(-c2ccc(F)cc2)[nH]c2ccc(F)cc12)NC1CC(F)(F)C1` [Compound 47], the IC50 is 250 to 1000 nM in test [1] and above 1000 nM in test [2].

Turning to `C[C@@H](CO)NC(=O)CCc1c(-c2ccc(F)cc2)[nH]c2c(F)cc(F)cc12` [Compound 109], the half-maximal inhibitory concentration (IC50) in test [1] and in test [2] was 250 to 1000 nM in each case.

In the case of `O=C(CCc1c(-c2ccc(F)cc2)[nH]c2ccc(F)cc12)N[C@@H]1CCC[C@@H]1O` [Compound 15], the IC50 in test [1] and in test [2] was 250 to 1000 nM each time.

On to `CC(NC(=O)CCc1c(-c2ccc(F)cc2)[nH]c2ccc(F)cc12)C(N)=O` (racemic) [Compound 13], for which the concentration for half-maximal inhibition (IC50) in test [1] was 250 to 1000 nM; in test [2], above 1000 nM.

`O=C(CCc1c(-c2ccc(F)cc2)[nH]c2ccc(F)cc12)NC1(CO)CCC1` [Compound 4]: the half-inhibitory concentration (IC50) in test [1] and in test [2] was below 250 nM throughout.

Take `C[C@@H](O)CNC(=O)CCc1c(-c2ccc(F)cc2)[nH]c2ccc(F)cc12` [Compound 79]: the 50% inhibitory concentration (IC50) in test [1] and in test [2] was above 1000 nM each time.

A word on the IC50: it is the concentration that gives 50% inhibition.
